Results as given in patent US20080093247A1, “PACKAGING MATERIALS FOR FORMULATIONS CONTAINING 2-PYRROLIDONE DERIVATIVES” (Alcon Manufacturing Ltd., priority 2006, published 2008).
Several values for one entry are separate records, joined by “and”; a condition that tells them apart may be missing. Equal values may be shown once.

How the values were obtained:
[1] = cited from earlier work
[2] = Retention of N-dodecyl-2-pyrrolidone (DDP) in formulations stored in various packaging materials, HPLC; type: physicochemical
Method: A material substantially lacking absorptive and adsorptive properties for a 5-(R1)-N-(R2)-2-pyrrolidone. A material substantially lacking absorptive and adsorptive properties for a 5-(R1)-N-(R2)-2-pyrrolidone is determined by packaging a 5-(R1)-N-(R2)-2-pyrrolidone-containing formulation in a bottle made from a test material, removing samples from the formulation at different storage times, and testing for the presence of the 2-pyrrolidone derivative. For example, presence of N-dodecyl-2-pyrrolidone (DDP) within a test sample is determined quantitatively using HPLC analysis as described in the examples provided infra.
The serotonergic formulation set forth in Table 1 was compounded in a glass bottle using techniques known to those skilled in the art. The formulation was tested for starting DDP concentration and then a volume was filled into different types of packaging materials as set forth in Table 2. The filled packages were then stored at the conditions indicated in Table 2, either room temperature or constant temperature ovens at 40° C. and 60° C. The thermal exposure testing was used to simulate the ability of container material to retain and deliver DDP in solution over a period of time or after prolonged increased thermal exposure. The tests were performed on duplicate containers to verify DDP concentration remaining in solution.
Concentration of DDP in each formulation was determined by chromatographic separation. The tests were performed on a WATERS ALLIANCE HPLC system with a CADENZA C18 column using a mobile phase consisting of 85% acetonitrile and 15% 1-octanesulfonic acid/water at room temperature. Absorbance was monitored at 220 nm, the known absorption wavelength of DDP. Linear range of detection for DDP was from 1.0 to 100.0 ppm. Retention time of DDP using this system is 8.3 minutes.
In further reference to Table 2, “Glass Vial” is a 1.5 mL clear borosilicate glass vial sealed with a TEFLON® lined septa and aluminum crimp seal (AGILENT HPLC vials part number 5182-0543). “White PETE” is a 60 mL cylindrical bottle made from polyethylene terephthalate (PETE) resin containing a white colorant, titanium dioxide (ALCON part number X04715). “Natural sPP” is a 4 mL oval bottle made from syndiotactic polypropylene (sPP) resin without colorant, i.e., natural (ALCON part number 281277). “Natural TEFLON®” is a 30 mL cylindrical bottle made from fluorinated ethylene propylene (TEFLON® FEP) polymer without colorant by NALGENE® (VWR part number 16071-008).
The serotonergic formulation set forth in Table 3 was compounded in the same manner as the Table 1 formulation. The test, the method of testing, and the packaging were as for the Table 1 formulation.
The formulation set forth in Table 5 was compounded in the same manner as the Table 1 formulation. The test, the method of testing, and the packaging were as for the Table 1 formulation.
The formulation set forth in Table 7 was compounded in the same manner as the Table 1 formulation. The test, the method of testing, and the packaging were as for the Table 1 formulation, except as indicated. “White LDPE” is an 8 mL cylindrical bottle made from low-density polyethylene (LDPE) with white colorant and is ALCON part number 277027. “Natural Polystyrene” is a 150 mL cylindrical bottle made of polystyrene polymer without colorant and is CORNING filter flask product 431153.

CCCCCCCCCCCCN1CCCC1=O [DDP, N-dodecyl-2-pyrrolidone]
solubility in water [1]: up to 0.002%
DDP concentration in formulation ([2]; Table 1 formulation, Glass Vial 1.5 mL Fill, 1 day @ 40° C.): 9.5 ppm and 9.6 ppm
DDP concentration in formulation ([2]; Table 1 formulation, Glass Vial 1.5 mL Fill, 1 day @ 60° C.): 10 ppm and 9.6 ppm
DDP concentration in formulation ([2]; Table 1 formulation, Glass Vial 1.5 mL Fill, 1 day @ RT): 9.2 ppm and 9.3 ppm
DDP concentration in formulation ([2]; Table 1 formulation, Glass Vial 1.5 mL Fill, 2 days @ 40° C.): 9.3, 9.3 ppm
DDP concentration in formulation ([2]; Table 1 formulation, Glass Vial 1.5 mL Fill, 2 days @ 60° C.): 9.4 ppm and 9.1 ppm
DDP concentration in formulation ([2]; Table 1 formulation, Glass Vial 1.5 mL Fill, 5 days @ 40° C.): 8.8 ppm and 9.1 ppm
DDP concentration in formulation ([2]; Table 1 formulation, Glass Vial 1.5 mL Fill, 5 days @ 60° C.): 8.9 ppm and 8.6 ppm
DDP concentration in formulation ([2]; Table 1 formulation, Glass Vial 1.5 mL Fill, 6 days @ RT): 9.0, 9.0 ppm
DDP concentration in formulation ([2]; Table 1 formulation, Natural TEFLON 10 mL Fill, 2 days @ 60° C.): 8.4 ppm
DDP concentration in formulation ([2]; Table 1 formulation, Natural TEFLON 10 mL Fill, 5 days @ 60° C.): 7.8 ppm
DDP concentration in formulation ([2]; Table 1 formulation, Natural sPP 4 mL Fill, 1 day @ 40° C.): 3.3 ppm and 3.4 ppm
DDP concentration in formulation ([2]; Table 1 formulation, Natural sPP 4 mL Fill, 1 day @ 60° C.): 1.3, 1.3 ppm
DDP concentration in formulation ([2]; Table 1 formulation, Natural sPP 4 mL Fill, 1 day @ RT): 6.1 ppm and 6.6 ppm
DDP concentration in formulation ([2]; Table 1 formulation, Natural sPP 4 mL Fill, 2 days @ 40° C.): 1.6 ppm and 1.7 ppm
DDP concentration in formulation ([2]; Table 1 formulation, Natural sPP 4 mL Fill, 2 days @ 60° C.): 1.2 ppm and 1.3 ppm
DDP concentration in formulation ([2]; Table 1 formulation, Natural sPP 4 mL Fill, 6 days @ RT): 4.0 ppm and 3.9 ppm
DDP concentration in formulation ([2]; Table 1 formulation, Start, before filling into packaging): 11,11 ppm and 11, 11 ppm
DDP concentration in formulation ([2]; Table 1 formulation, White PETE 10 mL Fill, 1 day @ 40° C.): 9.6 ppm and 9.3 ppm
DDP concentration in formulation ([2]; Table 1 formulation, White PETE 10 mL Fill, 1 day @ 60° C.): 8.1 ppm and 8.3 ppm
DDP concentration in formulation ([2]; Table 1 formulation, White PETE 10 mL Fill, 1 day @ RT): 9.8 ppm and 10 ppm
DDP concentration in formulation ([2]; Table 1 formulation, White PETE 10 mL Fill, 2 days @ 40° C.): 8.9 ppm and 9.4 ppm
DDP concentration in formulation ([2]; Table 1 formulation, White PETE 10 mL Fill, 2 days @ 60° C.): 7.4 ppm and 7.5 ppm
DDP concentration in formulation ([2]; Table 1 formulation, White PETE 10 mL Fill, 5 days @ 40° C.): 8.8 ppm and 9.3 ppm
DDP concentration in formulation ([2]; Table 1 formulation, White PETE 10 mL Fill, 5 days @ 60° C.): 6.1 ppm and 6.4 ppm
DDP concentration in formulation ([2]; Table 1 formulation, White PETE 10 mL Fill, 6 days @ RT): 9.1 ppm and 9.0 ppm
DDP concentration after thermal exposure (in words) ([2]; Table 1 formulation, sPP container, Tests 1, 2, and 3): drops significantly
DDP concentration in formulation ([2]; Table 3 formulation, Glass Vial 1.5 mL Fill, 1 day @ 40° C.): 20, 20 ppm
DDP concentration in formulation ([2]; Table 3 formulation, Glass Vial 1.5 mL Fill, 1 day @ 60° C.): 20, 20 ppm
DDP concentration in formulation ([2]; Table 3 formulation, Glass Vial 1.5 mL Fill, 1 day @ RT): 20, 20 ppm
DDP concentration in formulation ([2]; Table 3 formulation, Glass Vial 1.5 mL Fill, 2 days @ 40° C.): 19 ppm and 21 ppm
DDP concentration in formulation ([2]; Table 3 formulation, Glass Vial 1.5 mL Fill, 2 days @ 60° C.): 20 ppm and 19 ppm
DDP concentration in formulation ([2]; Table 3 formulation, Glass Vial 1.5 mL Fill, 5 days @ 40° C.): 20, 20 ppm
DDP concentration in formulation ([2]; Table 3 formulation, Glass Vial 1.5 mL Fill, 5 days @ 60° C.): 19, 19 ppm
DDP concentration in formulation ([2]; Table 3 formulation, Glass Vial 1.5 mL Fill, 6 days @ RT): 20, 20 ppm
DDP concentration in formulation ([2]; Table 3 formulation, Natural TEFLON 10 mL Fill, 2 days @ 60° C.): 19 ppm
DDP concentration in formulation ([2]; Table 3 formulation, Natural TEFLON 10 mL Fill, 5 days @ 60° C.): 19 ppm
DDP concentration in formulation ([2]; Table 3 formulation, Natural sPP 4 mL Fill, 1 day @ 40° C.): 13, 13 ppm
DDP concentration in formulation ([2]; Table 3 formulation, Natural sPP 4 mL Fill, 1 day @ 60° C.): 7.0, 7.0 ppm
DDP concentration in formulation ([2]; Table 3 formulation, Natural sPP 4 mL Fill, 1 day @ RT): 18, 18 ppm
DDP concentration in formulation ([2]; Table 3 formulation, Natural sPP 4 mL Fill, 2 days @ 40° C.): 10, 10 ppm
DDP concentration in formulation ([2]; Table 3 formulation, Natural sPP 4 mL Fill, 2 days @ 60° C.): 3.4 ppm and 3.2 ppm
DDP concentration in formulation ([2]; Table 3 formulation, Natural sPP 4 mL Fill, 5 days @ 40° C.): 6.1 ppm and 6.2 ppm
DDP concentration in formulation ([2]; Table 3 formulation, Natural sPP 4 mL Fill, 6 days @ RT): 15, 15 ppm
DDP concentration in formulation ([2]; Table 3 formulation, Start, before filling into packaging): 20, 20 ppm
DDP concentration in formulation ([2]; Table 3 formulation, White PETE 10 mL Fill, 1 day @ 40° C.): 20, 20 ppm
DDP concentration in formulation ([2]; Table 3 formulation, White PETE 10 mL Fill, 1 day @ 60° C.): 19 ppm and 20 ppm
DDP concentration in formulation ([2]; Table 3 formulation, White PETE 10 mL Fill, 1 day @ RT): 21 ppm and 20 ppm
DDP concentration in formulation ([2]; Table 3 formulation, White PETE 10 mL Fill, 2 days @ 40° C.): 20 ppm and 19 ppm
DDP concentration in formulation ([2]; Table 3 formulation, White PETE 10 mL Fill, 2 days @ 60° C.): 18 ppm and 19 ppm
DDP concentration in formulation ([2]; Table 3 formulation, White PETE 10 mL Fill, 5 days @ 40° C.): 20, 20 ppm
DDP concentration in formulation ([2]; Table 3 formulation, White PETE 10 mL Fill, 5 days @ 60° C.): 17 ppm and 18 ppm
DDP concentration in formulation ([2]; Table 3 formulation, White PETE 10 mL Fill, 6 days @ RT): 19 ppm and 20 ppm
available DDP in the contained solution (in words) ([2]; Table 3 formulation, sPP packaging relative to Glass Vial, PETE, and TEFLON, Tests 4, 5, and 6): significant reduction
DDP concentration in formulation ([2]; Table 5 formulation, Glass Vial 1.5 mL Fill, 1 day @ 40° C.): 9.0 ppm and 8.9 ppm
DDP concentration in formulation ([2]; Table 5 formulation, Glass Vial 1.5 mL Fill, 1 day @ RT): 8.7 ppm and 8.6 ppm
DDP concentration in formulation ([2]; Table 5 formulation, Glass Vial 1.5 mL Fill, 2 days @ 40° C.): 8.6 ppm and 8.2 ppm
DDP concentration in formulation ([2]; Table 5 formulation, Glass Vial 1.5 mL Fill, 6 days @ RT): 8.4 ppm and 8.2 ppm
DDP concentration in formulation ([2]; Table 5 formulation, Natural sPP 4 mL Fill, 1 day @ 40° C.): 0.3, 0.3 ppm
DDP concentration in formulation ([2]; Table 5 formulation, Natural sPP 4 mL Fill, 1 day @ RT): 1.1, 1.1 ppm
DDP concentration in formulation ([2]; Table 5 formulation, Start, before filling into packaging): 8.0, 8.0 ppm
DDP concentration in formulation ([2]; Table 5 formulation, White PETE 10 mL Fill, 1 day @ 40° C.): 5.5 ppm and 5.0 ppm
DDP concentration in formulation ([2]; Table 5 formulation, White PETE 10 mL Fill, 1 day @ RT): 6.3 ppm and 6.4 ppm
DDP concentration in formulation ([2]; Table 5 formulation, White PETE 10 mL Fill, 2 days @ 40° C.): 4.6 ppm and 4.5 ppm
DDP concentration in formulation ([2]; Table 5 formulation, White PETE 10 mL Fill, 6 days @ RT): 6.5 ppm and 6.4 ppm
available DDP in the contained solution (in words) ([2]; Table 5 formulation, sPP packaging relative to Glass Vial and PETE, Tests 7, 8, and 9): significant reduction
retaining DDP in the formulation (in words) ([2]; Table 7 formulation, Natural Polystyrene container, Tests 10, 11, and 12): essentially equivalent to the PETE container
loss of DDP from the formulation (in words) ([2]; Table 7 formulation, White LDPE container, Tests 10, 11, and 12): even more severe than the sPP container
loss of DDP from the formulation (in words) ([2]; Table 7 formulation, sPP container, Tests 10, 11, and 12): much greater than that of the Glass Vial or PETE containers

CCCCCCCCN1CCCC1=O [N-octyl-2-pyrrolidone]
solubility in water [1]: up to 0.124%
